The IC50 is the point on the concentration scale where inhibition reaches its midpoint. The low end stands for higher potency, the high end for lower potency. Broadly, the Ki is the equilibrium dissociation constant of an inhibitor or competing ligand from its target.

Assay [1] concerns the target T1, Nuclear receptor ROR-gamma (Homo sapiens, UniProt P51449).
T1 sequence (P51449 whole entry): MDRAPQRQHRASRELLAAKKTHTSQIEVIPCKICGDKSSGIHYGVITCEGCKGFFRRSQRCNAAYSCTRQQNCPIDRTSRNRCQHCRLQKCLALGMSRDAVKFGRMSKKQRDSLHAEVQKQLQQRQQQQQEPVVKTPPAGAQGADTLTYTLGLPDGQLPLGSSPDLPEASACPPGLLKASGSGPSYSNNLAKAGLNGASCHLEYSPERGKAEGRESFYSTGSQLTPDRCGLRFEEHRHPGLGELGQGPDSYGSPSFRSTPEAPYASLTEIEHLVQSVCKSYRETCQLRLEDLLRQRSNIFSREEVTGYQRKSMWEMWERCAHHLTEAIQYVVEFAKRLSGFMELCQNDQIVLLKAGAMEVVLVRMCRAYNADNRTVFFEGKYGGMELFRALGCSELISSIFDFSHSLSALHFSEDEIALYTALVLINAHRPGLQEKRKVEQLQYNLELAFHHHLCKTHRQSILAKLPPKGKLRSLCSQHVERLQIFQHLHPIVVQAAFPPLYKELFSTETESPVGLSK
Kind of assay: Inverse agonist activity against human RORgammat by FRET assay.

Assay [2] has as its target T1, Nuclear receptor ROR-gamma. Kind of assay: Displacement of 25-[26,27-3H2]-hydroxycholesterol from RORgammat (unknown origin) assessed as inhibition constant by scintillation proximity assay. In general terms: In a scintillation proximity assay essentially only radioactivity close to the scintillant gives light.

`Cc1ccc([C@@H](NC(=O)Cc2ccc3oc(C(O)c4c(C)noc4C)cc3c2)c2ccccc2)c(C)c1` (stereo partly drawn) registered an IC50 in assay [1] of 5 nM.

As for `CCS(=O)(=O)c1ccc(CC(=O)Nc2cnc3c(c2)CN(C[C@H]2CC[C@H](C(F)(F)F)CC2)[C@H]3C(C)C)nc1`, the Ki in assay [2] came out at 3.7 nM.

As for `Cc1ccc(C(NC(=O)Cc2ccc(OCc3c(C)noc3C)cc2)c2ccccc2)c(C)c1` (stereo not drawn), the IC50 in assay [1] turned out to be 3 nM.
